Experimental data: patent US20130143869A1, “USE OF A CATIONIC AMPHIPHILIC DRUG FOR THE PREPARATION OF A FORMULATION FOR THE REDUCTION OF SUBCUTANEOUS ADIPOSE TISSUE” (Merz Pharma GmbH & CO. KGaA, priority 2010, published 2013)
Structures can show the parent of a compound that is named as a salt.

Legend:
Type in all cases: cell-based
human adipocyte cells [1] = assay: Cytotoxicity assay: metabolic activity (resazurin conversion) of human adipocytes
Procedure: (§1) HWP were obtained in passage two and differentiated in vitro to mature adipocytes. Briefly, cells were initially cultured in preadipocyte growth medium at 37° C. and 5% CO2 to 70-80% confluency. Then, cells were seeded at 40,000 cells/ml into 96-well flat bottom tissue culture plates and incubated overnight to allow attachment. Differentiation was initiated by changing the medium to preadipopcyte differentiation medium for an additional 72 hrs. After differentiation was induced, the medium was replaced by adipocyte nutrition medium that was refreshed every 2-3 days over a period of 14 days until termination of differentiation. Differentiation status was checked via nile red staining of control cells.
The test items 1 to 8 were prepared according to Table 1 to yield respective stock solutions. Said stock solutions were further diluted in assay media to obtain the double concentrated working solutions, which were subsequently diluted 1:2 in the final assay. […] Deoxycholate Na was selected as “reference compound”.
(§2) For the cytotoxicity assays in this study pre-adipocytes were seeded at 40,000 cells/ml into a 96-well microtiter flat bottom plate. The test items were prepared in separate plates starting with the double concentrated maximal test concentration followed by a 1:2 serial dilution (Chloroquine and Fluoxetine 1:3) and then added to the cells. The test items were tested at 6 replicates/concentration. Each plate included negative controls (media plus solvent, 6 replicates), a drug interference control (all concentrations, duplicates), a background control (14 replicates), a positive (=cytotoxic) control (6 replicates doxorubicin, 1 μM final) and a positive control for maximal LDH-release (2 replicates, 2% Triton-x 100 final).
(§3) Relative cell viability was determined after 48 hrs exposure based on metabolic activity (i.e. resazurin conversion). Using a Victor^3 1420 Multilabel Counter, the resazurin conversion to the fluorescent resorufin by metabolically active cells was recorded at 560Ex/590Em. Membrane integrity was measured after 6 hrs and 48 hrs and the enzymatic activity of released LDH in the cell supernatant after 30 min of incubation at 492 nmabsorption/690 nmreference by a spectrophotometer. The volume withdrawn from the cultures for the LDH-assay was not replaced to keep cells in a less disturbed environment. The assay was conducted in a multiplexed format.
In order to derive meaningful IC50 values from the primary data, the entire biological window of activity ranging from 0% to 100% viability should be covered and the resolution has to be sufficient. To improve data quality, the serial dilution factor used in previous experiments was reduced to a 1:2 and 1:3 dilution. […] IC50 (half maximal inhibitory concentration, calculated via Sigma Plot 10) values were determined for each test substance 1 to 8.
(§4) The effects on cytotoxicity in human adipocyte cells of a further 9 compounds were tested. The experimental set-up was identical to the one in example 1.

human adipocyte cells [2] = assay: Membrane integrity: LDH release from human adipocytes (LDH assay); conditions: for IC50: read-out: IC50 48 hrs LDH; for Rel. max. LDH release [%] 48 hrs: Example 1, 48 hrs, relative to Triton-x 100 maximal LDH release
Procedure: as §1, §2, §3
For the dose-response relationship, absolute absorption (OD treated wells−background) was plotted against the test item concentrations representing LDH leakage from the cells. For a better estimation of the test items' potential influencing the membrane integrity, relative, maximal LDH release in percent (see Table 2) was also calculated according to the following formula: […]
as §4

Human white adipocytes = assay: Apoptosis/necrosis detection, Annexin V-FITC/PI flow cytometry; conditions: for apoptosis/necrosis induction in human adipocytes (in words): 5, 24, 48 hrs, concentrations as in Table 4
Excerpt: The apoptotic program is characterized by certain morphologic features. Loss of plasma membrane asymmetry is a well established indicator for apoptotic cells. In apoptotic cells, the membrane phospholipid phosphatidylserine (PS) is translocated from the inner to the outer leaflet of the plasma membrane, thereby exposing PS to the external environment. In general, this PS translocation is preceded by caspase activation. Annexin V labelled with FITC is a Ca^2+ dependent phospholipid-binding protein with high affinity for PS and binds to cells with externalized PS. Cells stained with Annexin V*FITC are therefore considered in an early apoptotic stage.
Staining with Annexin V-FITC is typically used in conjunction with a vital dye such as propidium iodide (PI) to allow discrimination between early apoptotic and necrotic cells. Necrotic dying cells are PI positive only. Cells that are viable are Annexin V and PI negative; cells that entered apoptosis are Annexin V positive and PI negative and cells that are in post apoptotic and/or necrotic phase are both Annexin V and PI positive.
Human white adipocytes that had been differentiated in vitro from pre-adipocytes as describe above were used. Measurements were performed after 5 hrs to catch early apoptotic/necrotic events and after 24 hrs and 48 hrs for later stages. Naringenin at 500 μM (reported to induce apoptosis in adipocytes) was used as positive control and media plus solvent was used as negative control. Each compound was tested in three different concentrations. […] Two more concentrations, one below and one above the IC50 were added.
Flow cytometry was performed with a dual laser FC500. After completion of the staining procedure, tubes were grouped into a FC500 carousel for semi-automated data acquisition. Cells were first acquired in “Setup” mode to tune the parameters FS, SS, FL1 and FL2. After completion of the setup, baseline compensation was switched on and cells were acquired. Cells were acquired without life-gate but using FS threshold to exclude debris. All cells were acquired using individually corrected settings.
After completion of data acquisition, analysis was done using the CXP software. If necessary, software-based post acquisition compensation was performed to fine-correct for fluorescence overlap not adjusted for during the acquisition phase. Quadrant markers were set based on the negative controls.

[3] = Homo sapiens, Adipocyte, read-out: IC50 48 hrs Resazurin, Example 2, 48 hrs
[4] = Homo sapiens, Adipocyte, Example 2, 48 hrs
[5] = Homo sapiens, Adipocyte, read-out: IC50 (metabolic activity after 48 hrs), Example 1, 48 hrs exposure, resazurin
[6] = read-out: IC50 (metabolic activity after 48 hrs), Example 1, 48 hrs exposure, resazurin

## COc1ccccc1OCCNCC(O)COc1cccc2[nH]c3ccccc3c12 (centres unmarked) [Carvedilol]
Human adipocyte cells [1]; [3]
  IC50: 28.4 µM
Human adipocyte cells [2]; [4]
  IC50: ~22.2 µM

## CNCC[C@H](Oc1cccc2ccccc12)c1cccs1 [Duloxetine]
Human adipocyte cells [1]; Homo sapiens, Adipocyte, 48 h, read-out: IC50 48 hrs Resazurin
  IC50: 42.9 µM
Human adipocyte cells [2]; Homo sapiens, Adipocyte, 48 h
  IC50: ~31.9 µM

## O=C1C[C@@H](c2ccc(O)cc2)Oc2cc(O)cc(O)c21 [Naringenin]
Human white adipocytes; 500 μM, 5 hrs
  Early Apoptosis [A-V*/PI*]: 16
  Necrosis/ Late Apoptosis [A-V*/PI*]: 0.8
  Normal [A-V*/PI]: 83.2
Human white adipocytes; 500 μM, 24 hrs
  Early Apoptosis [A-V*/PI*]: 14.1
  Necrosis/ Late Apoptosis [A-V*/PI*]: 4.1
  Normal [A-V*/PI]: 81.8
Human white adipocytes; 500 μM, 48 hrs
  Early Apoptosis [A-V*/PI*]: 12.1
  Necrosis/ Late Apoptosis [A-V*/PI*]: 5.7
  Normal [A-V*/PI]: 81.2
Human white adipocytes
  apoptosis/necrosis induction in human adipocytes (in words): small but clear increase in apoptotic/necrotic adipocytes over time

## Fc1ccc([C@@H]2CCNC[C@H]2COc2ccc3c(c2)OCO3)cc1 [Paroxetine]
Human adipocyte cells [1]; [3]
  IC50: 39.3 µM
Human adipocyte cells [2]; [4]
  IC50: ~31.2 µM

## OCCN1CCN(CCCN2c3ccccc3Sc3ccc(Cl)cc32)CC1 [Perphenazine]
Human adipocyte cells [1]; [3]
  IC50: 25 µM
Human adipocyte cells [2]; [4]
  IC50: ~20.3 µM

## CCN(CC)CCCC(C)Nc1ccnc2cc(Cl)ccc12 (centres unmarked) [Test substance 1, Chloroquine]
Human adipocyte cells [1]; Homo sapiens, Adipocyte, 48 h, read-out: IC50 (metabolic activity after 48 hrs)
  IC50: 599 µM
Human adipocyte cells [2]
  Rel. max. LDH release [%] 48 hrs: 101.8%

## CN(C)CCCC1(c2ccc(F)cc2)OCc2cc(C#N)ccc21 (centres unmarked) [Test substance 2, Citalopram HBr]
Human adipocyte cells [1]; [5]
  IC50: 431 µM
Human white adipocytes; 250 μM, 5 hrs
  Early Apoptosis [A-V*/PI*]: 21.5
  Necrosis/ Late Apoptosis [A-V*/PI*]: 0.6
  Normal [A-V*/PI]: 77.9
Human white adipocytes; 250 μM, 24 hrs
  Early Apoptosis [A-V*/PI*]: 32.4
  Necrosis/ Late Apoptosis [A-V*/PI*]: 2.2
  Normal [A-V*/PI]: 65.4
Human white adipocytes; 250 μM, 48 hrs
  Early Apoptosis [A-V*/PI*]: 23.1
  Necrosis/ Late Apoptosis [A-V*/PI*]: 3.3
  Normal [A-V*/PI]: 79.6
Human white adipocytes; 350 μM, 5 hrs
  Early Apoptosis [A-V*/PI*]: 31.3
  Necrosis/ Late Apoptosis [A-V*/PI*]: 1.5
  Normal [A-V*/PI]: 67.2
Human white adipocytes; 350 μM, 24 hrs
  Early Apoptosis [A-V*/PI*]: 57.6
  Necrosis/ Late Apoptosis [A-V*/PI*]: 4.7
  Normal [A-V*/PI]: 37.7
Human white adipocytes; 350 μM, 48 hrs
  Early Apoptosis [A-V*/PI*]: 35.6
  Necrosis/ Late Apoptosis [A-V*/PI*]: 10.7
  Normal [A-V*/PI]: 53.7
Human white adipocytes; 450 μM, 5 hrs
  Early Apoptosis [A-V*/PI*]: 30.5
  Necrosis/ Late Apoptosis [A-V*/PI*]: 1.1
  Normal [A-V*/PI]: 68.4
Human white adipocytes; 450 μM, 24 hrs
  Early Apoptosis [A-V*/PI*]: 26
  Necrosis/ Late Apoptosis [A-V*/PI*]: 23.9
  Normal [A-V*/PI]: 50.1
Human white adipocytes; 450 μM, 48 hrs
  Early Apoptosis [A-V*/PI*]: 44.9
  Necrosis/ Late Apoptosis [A-V*/PI*]: 26
  Normal [A-V*/PI]: 29.1
Human white adipocytes
  apoptosis/necrosis induction in human adipocytes (in words): clear apoptosis after 5 hrs with virtually no necrosis
Human adipocyte cells [2]
  Rel. max. LDH release [%] 48 hrs: 100.7%

## CN(C)CCC[C@@]1(c2ccc(F)cc2)OCc2cc(C#N)ccc21 [Test substance 3, Escitalopram oxalate]
Human adipocyte cells [1]; [5]
  IC50: 491 µM
Human adipocyte cells [2]
  Rel. max. LDH release [%] 48 hrs: 88.0%

## COc1ccc([C@@H]2Sc3ccccc3N(CCN(C)C)C(=O)[C@@H]2OC(C)=O)cc1.Cl [Test substance 6, Diltiazem HCl]
Human adipocyte cells [1]; [6]
  IC50: 800 µM
Human adipocyte cells [2]
  Rel. max. LDH release [%] 48 hrs: 94.5%

## CC(CCc1ccccc1)NCC(O)c1ccc(O)c(C(N)=O)c1 (centres unmarked) [Test substance 7, Labetalol HCl]
Human adipocyte cells [1]; [5]
  IC50: 659 µM
Human adipocyte cells [2]
  Rel. max. LDH release [%] 48 hrs: 101.1%

## C[C@H](CCC(=O)[O-])[C@H]1CC[C@H]2[C@@H]3CC[C@@H]4C[C@H](O)CC[C@]4(C)[C@H]3C[C@H](O)[C@]12C.[Na+] [Test substance 8, Deoxycholate Na]
Human adipocyte cells [1]; read-out: IC50 48 hrs Resazurin, Example 2, 48 hrs, listed as Deoxycholate
  IC50: ~616 µM
Human adipocyte cells [1]; read-out: IC50 48 hrs Resazurin, Example 2, 48 hrs, listed as deoxycholate
  IC50: 616 µM
Human adipocyte cells [1]; [6]
  IC50: 446 µM
Human adipocyte cells [2]
  Rel. max. LDH release [%] 48 hrs: 98.0%
Human adipocyte cells [2]; Example 2, 48 hrs
  IC50: ~379 µM

## Clc1ccc(C(Cn2ccnc2)OCc2ccsc2Cl)c(Cl)c1 (centres unmarked) [Thioconazole]
Human adipocyte cells [1]; read-out: IC50 48 hrs Resazurin, Example 2, 48 hrs
  IC50: 10.5 µM
Human adipocyte cells [2]; Example 2, 48 hrs
  IC50: ~7.4 µM

## CN1CCN(CCCN2c3ccccc3Sc3ccc(C(F)(F)F)cc32)CC1 [Trifluoperazine]
Human adipocyte cells [1]; [3]
  IC50: 17.4 µM
Human adipocyte cells [2]; [4]
  IC50: ~14.3 µM
